# Laboratory results: patent EP2544684B1, “4,4-DISUBSTITUTED PIPERIDINE DERIVATIVES USEFUL AS INHIBITORS OF DIPEPTIDYL PEPTIDASE-1 (DPP-1)” (Janssen Pharmaceutica NV, priority 2010, dated 2011)
# Structures can show the parent of a compound that is named as a salt. Where two headings read alike, the source gives them in different places.
# Target: T1, DPP-1 (Cathepsin C) (Homo sapiens, UniProt P53634)
# T1 construct: made in house
# Experiment: DPP-1 Inhibition Assay (in vitro), fluorogenic substrate GR-AMC
# Assay type: biochemical
# Conditions: 10 uM GR-AMC, pH 7.0, room temperature, average value where tested multiple times
# Experimental: Test compounds were assessed for DPP-1 (Cathepsin C) inhibitory activity using a fluorogenic substrate, GR-AMC (Glycine-Arginine-amino-4-methylcoumarin, Bachem, I-1215). The amount of amino-methylcoumarin released is proportional to the DPP-1 activity, and the reaction is monitored kinetically with a Molecular Devices plate reader using black 96-well plates.
# All compounds were tested under room temperature conditions. The assay buffer consisted of 50 mM HEPES, pH 7.0, 100 mM NaCl, 2 mM glutathione (GSH), and 0.002% TWEEN 20. GSH and TWEEN 20 were added to the buffer fresh daily. Just prior to use, an in-house preparation of recombinant human DPP-1 (240 µM stock, MW 49.6 kD) was diluted 600-fold in assay buffer containing fresh 2 mM dithiothreitol (DTT) to activate the enzyme, then diluted into assay buffer (without DTT) 133-fold for a DPP-1 working solution of 3 nM. Test compounds were diluted in DMSO for 20x their final assay concentrations.
# Additions to a 96-well black Costar 3915 plates were as follows: 90 µL of 11 µM GR-AMC, 5 µL test compound (followed by mixing), and 5 µL 3 nM DPP-1 to start the reaction. Fluorescent reactions were monitored kinetically at 360 nm excitation, 440 nm emission on a Molecular Devices Spectramax XPS reader. The Softmax Pro software of the reader determined the initial velocity of the selected data (the first 3-5 minutes of the reaction), and the best linear regression fit of the initial kinetic data. Final assay conditions were 0.15 nM DPP-1, 10 uM GR-AMC, 50 mM HEPES, pH 7.0, 100 mM NaCl, 2 mM GSH, 0.002% TWEEN 20, 1 uM DTT, 5.0 % DMSO. Initial velocity rates were plotted vs. test compound concentration by use of a four-parameter logistics equation (nonlinear regression, sigmoidal dose-response (variable slope), with fixed Hill (1.0) using GraphPad Prism® software for determination of DPP-1 IC50. Within-run assay coefficient of variation (CV) was generally <10%; between-run CV <20%.
# Representative compounds of the present invention were tested according to the procedure as described above, with results as listed in Table 5, below. Table 5: DPP-1 Inhibition
# [1] = recombinant human DPP-1 0.15 nM, read-out: IC50
# [2] = IC50, recombinant human DPP-1 0.15 nM
# T1 sequence (P53634 25-463): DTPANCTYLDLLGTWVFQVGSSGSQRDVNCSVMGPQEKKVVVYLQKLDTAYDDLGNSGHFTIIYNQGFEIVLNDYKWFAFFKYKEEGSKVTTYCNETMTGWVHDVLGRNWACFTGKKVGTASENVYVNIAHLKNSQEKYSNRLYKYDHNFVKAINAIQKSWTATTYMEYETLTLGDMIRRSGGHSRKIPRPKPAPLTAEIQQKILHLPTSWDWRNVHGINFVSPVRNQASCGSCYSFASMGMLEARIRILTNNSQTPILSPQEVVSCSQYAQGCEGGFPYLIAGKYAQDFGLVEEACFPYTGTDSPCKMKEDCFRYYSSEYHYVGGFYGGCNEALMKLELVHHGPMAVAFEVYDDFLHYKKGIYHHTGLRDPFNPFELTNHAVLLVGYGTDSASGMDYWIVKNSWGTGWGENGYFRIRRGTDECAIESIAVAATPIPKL
SMILES,IC50 [1],IC50 [2]
"CC(=O)Nc1ccc(CC2(C(=O)NC3CCCCC3)CCN(C(=O)[C@@H](N)Cc3cccs3)CC2)cc1 [Compound 90, (S)-4-(4-acetamidobenzyl)-1-(2-amino-3-(thiophen-2-yl)propanoyl)-N-cyclohexylpiperidine-4-carboxamide hydrochloride]",49 nM,–
NC(C(=O)N1CCC(Cc2ccc(-c3ccccc3)cc2)(C(=O)NCC2CCCCC2)CC1)C(O)c1cccs1 (stereo not shown) [Compound 123],820 nM,–
"N#Cc1ccc(CC2(C(=O)OCC3CCCCC3)CCN(C(=O)[C@@H](N)Cc3cccs3)CC2)cc1 [Compound 15, (S)-cyclohexylmethyl 1-(2-amino-3-(thiophen-2-yl)propanoyl)-4-(4-cyanobenzyl)piperidine-4-carboxylate hydrochloride]",83 nM,–
CC[S+]([O-])CCC(N)C(=O)N1CCC(Cc2ccc(-c3ccccc3)cc2)(C(=O)NCC2CCCCC2)CC1 (stereo not shown) [Compound 107],> 20000 nM,–
"N[C@@H](Cc1cccs1)C(=O)N1CCC(Cc2ccccc2C(=O)O)(C(=O)NC2CCCCC2)CC1 [Compound 80, 2-[1-(2-(S)-Amino-3-thiophen-2-yl-propionyl)-4-cyclohexylcarbamoyl-piperidin-4-ylmethyl]-benzoic acid hydrochloride]",220 nM,–
CS(=O)(=O)CC[C@H](N)C(=O)N1CCC(Cc2ccc(I)cc2)(C(=O)NC2CCCCC2)CC1 [Compound 74],> 20000 nM,–
"CN(C)C(=O)c1ccc(CC2(C(=O)NC3CCCCC3)CCN(C(=O)[C@@H](N)Cc3cccs3)CC2)cc1 [Compound 59, (S)-1-(2-amino-3-(thiophen-2-yl)propanoyl)-N-cyclohexyl-4-(4-(dimethylcarbamoyl)benzyl)piperidine-4-carboxamide hydrochloride]",86 nM,–
N#CC1(c2cc(C(F)(F)F)cc(C(F)(F)F)c2)CCN(C(=O)C(N)Cc2cccs2)CC1 (stereo not shown) [Compound 118],–,3400 nM
"N[C@@H](Cc1cccs1)C(=O)N1CCC(C(=O)N[C@H]2CC[C@H](C(=O)O)CC2)(c2ccccc2)CC1 [Compound 111, 4-{[1-(2-(S)-Amino-3-thiophen-2-yl-propionyl)-4-phenyl-piperidine-4-carbonyl]-amino}-trans-cyclohexanecarboxylic acid]",89 nM,–
NC(=O)c1ccc(CC2(C(=O)NC3CCC(O)CC3)CCN(C(=O)C(N)Cc3cccs3)CC2)cc1 (stereo not shown) [Compound 117],330 nM,–
"N[C@@H](Cc1cccs1)C(=O)N1CCC(Cc2ccc(-c3nnn[nH]3)cc2)(C(=O)NC2CCCCC2)CC1 [Compound 126, (S)-4-(4-(1H-tetrazol-5-yl)benzyl)-1-(2-amino-3-(thiophen-2-yl)propanoyl)-N-cyclohexylpiperidine-4-carboxamide hydrochloride]",170 nM,–
"N[C@@H](Cc1cccs1)C(=O)N1CCC(Cc2ccc(NS(=O)(=O)c3ccccn3)cc2)(C(=O)NC2CCCCC2)CC1 [Compound 87, (S)-1-(2-amino-3-(thiophen-2-yl)propanoyl)-N-cyclohexyl-4-(4-(pyridine-2-sulfonamido)benzyl)piperidine-4-carboxamide hydrochloride]",20 nM,–
Cc1ccc(C2(C(=O)NC3CCC(O)CC3)CCN(C(=O)C(N)Cc3cccs3)CC2)cc1 (stereo not shown) [Compound 131],140 nM,–
CSC[C@H](N)C(=O)N1CCC(Cc2ccc(-c3ccccc3)cc2)(C(=O)NC2CCCCC2)CC1 [Compound 38],–,750 nM
COC(=O)C1CCC(NC(=O)C2(c3ccccc3)CCN(C(=O)C(N)Cc3cccs3)CC2)CC1 (stereo not shown) [Compound 109],25 nM,–
C#CC[C@H](N)C(=O)N1CCC(Cc2ccc(-c3ccccc3)cc2)(C(=O)NC2CCCCC2)CC1 [Compound 35],> 20000 nM,–
CC[C@H](N)C(=O)N1CCC(Cc2ccc(C(F)(F)F)cc2)(C(=O)OCC2CCCCC2)CC1 [Compound 18],–,5400 nM
N#Cc1ccc(CC2(C(=O)NC3CCC(O)CC3)CCN(C(=O)C(N)Cc3cccs3)CC2)cc1 (stereo not shown) [Compound 125],160 nM,–
"COc1cccc(-c2ccc(CC3(C(=O)NC4CCCCC4)CCN(C(=O)[C@@H](N)Cc4cccs4)CC3)cc2)c1 [Compound 47, (S)-1-(2-amino-3-(thiophen-2-yl)propanoyl)-N-cyclohexyl-4-((3'-methoxybiphenyl-4-yl)methyl)piperidine-4-carboxamide hydrochloride]",34 nM,–
"N[C@@H](Cc1cccs1)C(=O)N1CCC(Cc2ccc(-c3ccccc3)cc2)(C(=O)NCC2CCOCC2)CC1 [Compound 6, (S)-1-(2-amino-3-(thiophen-2-yl)propanoyl)-4-(biphenyl-4-ylmethyl)-N-((tetrahydro-2H-pyran-4-yl)methyl)piperidine-4-carboxamide hydrochloride]",74 nM,–
COC(=O)C1CCC(NC(=O)C2(c3ccccc3)CCN(C(=O)C(N)Cc3cccs3)CC2)CC1 (stereo not shown) [Compound 113],70 nM,–
CN1CCC(CNC(=O)C2(c3ccccc3)CCN(C(=O)C(N)Cc3cccs3)CC2)CC1 (stereo not shown) [Compound 152],820 nM,–
N[C@@H](Cc1c[nH]cn1)C(=O)N1CCC(Cc2cccc(-c3ccccc3)c2)(C(=O)OCC2CCCCC2)CC1 [Compound 31],–,5800 nM
"N[C@@H](Cc1cccs1)C(=O)N1CCC(C(=O)NCC2CCCCC2)(c2cc(C(F)(F)F)cc(C(F)(F)F)c2)CC1 [Compound 133, 1-(2-(S)-Amino-3-thiophen-2-yl-propionyl)-4-(3,5-bis-trifluoromethyl-phenyl)-piperidine-4-carboxylic acid cyclohexylmethylamide hydrochloride]",67 nM,–
N[C@@H](Cc1cccs1)C(=O)N1CCC(Cc2ccc(-c3ccccc3)cc2)(C(=O)N2CCC3CCCCC3C2)CC1 (stereo partly shown) [Compound 7],–,1300 nM
CC[C@H](N)C(=O)N1CCC(Cc2cccc(-c3ccccc3)c2)(C(=O)OCC2CCCCC2)CC1 [Compound 29],–,9500 nM
NC(Cc1cccs1)C(=O)N1CCC(Cc2ccc(-c3nnn[nH]3)cc2)(C(=O)NC2CCC(O)CC2)CC1 (stereo not shown) [Compound 128],690 nM,–
"NC(=O)c1ccc(CC2(C(=O)NCC3CCCCC3)CCN(C(=O)[C@@H](N)Cc3cccs3)CC2)cc1 [Compound 116, (S)-1-(2-amino-3-(thiophen-2-yl)propanoyl)-4-(4-carbamoylbenzyl)-N-(cyclohexylmethyl)piperidine-4-carboxamide hydrochloride]",50 nM,–
